Experimental data from publication PMC10731000, “Functional characterization of three G protein-coupled acetylcholine receptors in parasitic nematode Trichinella spiralis” (International Journal for Parasitology: Drugs and Drug …, 2023).
“Also recorded” adds a separate entry of the source. Counter-ions that a name gives are not always drawn. Like-named read-outs stand apart in the source and are kept apart here.

How the values were obtained:
[1] = biological target: T1, TsGAR-2 (Trichinella spiralis, UniProt E5SAZ1); test: Aequorin antagonist assay (block of 10 μM ACh response) in CHO-K1 cells expressing TsGAR-2; format: cell-based; details: co-expressed with Gα15(16)
Excerpt: (§1) T. spiralis GARs were heterologously expressed in CHO–K1 cells (Sigma) along with the aequorin reporter—with or without the wild-type human G protein alpha 15 subunit (Gα15(16)) (cDNA Resource Center, Bloomsburg University of Pennsylvania)—to observe activation of the receptor by monitoring bioluminescence triggered by the mobilization of intracellular calcium ([Offermanns and Simon, 1995]; [Park et al., 2002]). Therefore, there were two types of transient expression: i) TsGAR-1, -2, or -3/aequorin/Gα15(16); and ii) TsGAR-1, -2, or -3/aequorin. The use of Gα15(16) in the first assay is due to its highly efficient way of linking calcium mobilization signaling pathways to GPCRs that are preferentially coupling with Gi/o or Gs protein members ([Offermanns and Simon, 1995]).
(§2) For handling cell lines, all transfection details, and monitoring receptor activities, we followed the previously published study ([Šimo et al., 2011], [2013]; [Mateos-Hernández et al., 2020]). Briefly, CHO–K1 cells were kept in growth medium (Ham's F12 Media with 10% fetal bovine serum) until 70% of confluence was reached. FuGENE® HD Transfection Reagent (Promega) was then used to transfect the plasmid constructs. Prior to the assay, the cells were pre-equilibrated with coelenterazine h (Promega) for 3 h at room temperature. The assay was performed in opaque 96-well microplates (Nunc) using either Fluostar Omega (BMG Labtech) or GloMax® Plate Reader (Promega). In agonist assays, 50 μL of various doses of agonistic ligands were added to wells in triplicate, followed by injection of 50μL/∼15,000 of CHO–K1 cells. Immediately after the cell injections, luminescence values were monitored for 25 s and their integrated values over time were normalized to the largest positive control response in each plate (45 μM ACh) after background noise was subtracted. When performing the antagonist assay, cells were pre-incubated with different doses of antagonistic ligands for 5 min in RT (in a 96-well plate) and subsequently a 50 μL of 10 μM ACh solution was injected into the wells. The changes in luminescence were measured for 25 s immediately after injecting ACh, and time integrated values were normalized to the response of those wells in each plate that only contained cells with medium. A dose-response curve was plotted afterwards for each data set and half-maximum response values (EC50 or IC50) along the Hill coefficient (nH) were calculated using GraphPad Prism 8.0 (GraphPad Software). Two and three biological replicates were performed for the testing of T. spiralis GARs with or without the Gα15(16) and agonistic or antagonistic assay, respectively, with three technical replicates for each ligand. In terms of negative controls, a mock transfection was performed using empty pcDNA3.1 (+) plasmid, with an aequorin reporter and Gα15(16) subunit. To confirm the specificity of T. spiralis GAR-1, -2, and -3 affinity, we tested dopamine, octopamine and norepinephrine chemical agents.

[2] = biological target: T2, TsGAR-1 (Trichinella spiralis, UniProt A0A0V1C1R2); test: Aequorin antagonist assay (block of 10 μM ACh response) in CHO-K1 cells expressing TsGAR-1; format: cell-based; details: co-expressed with Gα15(16)
Excerpt: as §1
as §2, with “In terms of negative controls, a mock transfection was performed using empty pcDNA3.1 (+) plasmid, with an aequorin reporter and Gα15(16) subunit. To confirm the specificity of T. spiralis GAR-1, -2, and -3 affinity, we tested dopamine, octopamine and norepinephrine chemical agents.” left out

[3] = system: A. suum GAR-1; set-up: method as in Kimber et al., 2009; details: ref Kimber et al., 2009; cited from earlier work
[4] = system: C. elegans GAR-1; set-up: method as in Lee et al., 1999, Lee et al., 2000; details: ref Lee et al., 1999, Lee et al., 2000; cited from earlier work
[5] = system: T. castaneum mAChR-B; set-up: method as in Collin et al., 2013; details: ref Collin et al., 2013, cited from earlier work; for antagonist effect on T. castaneum mAChR-B (in words): same expression system as this study
[6] = biological target: T3, TsGAR-3 (Trichinella spiralis, UniProt E5S5F5); test: Aequorin antagonist assay (block of 10 μM ACh response) in CHO-K1 cells expressing TsGAR-3; format: cell-based; details: for nH (Hill coefficient), antagonist, TsGAR-3 / antagonist effect on TsGAR-3 (in words): without Gα15(16)
Method: Therefore, there were two types of transient expression: i) TsGAR-1, -2, or -3/aequorin/Gα15(16); and ii) TsGAR-1, -2, or -3/aequorin.
as §2, with “Briefly,” for “For handling cell lines, all transfection details, and monitoring receptor activities, we followed the previously published study ([Šimo et al., 2011], [2013]; [Mateos-Hernández et al., 2020]). Briefly,”, “Immediately after the cell injections, luminescence values were monitored for 25 s and their integrated values over time were normalized to the largest positive control response in each plate (45 μM ACh) after background noise was subtracted.” left out

[7] = system: D. melanogaster mAChR-B; set-up: method as in Collin et al., 2013; details: ref Collin et al., 2013, cited from earlier work; for antagonist effect on D. melanogaster mAChR-B (in words): same expression system as this study
[8] = biological target: T1, TsGAR-2; test: Aequorin calcium mobilization agonist assay in CHO-K1 cells expressing TsGAR-2; format: cell-based; details: for ACh-mediated calcium mobilization via TsGAR-2 (in words): Fig. 4
Excerpt: as §1, §2

[9] = biological target: T2, TsGAR-1; test: Aequorin calcium mobilization agonist assay in CHO-K1 cells expressing TsGAR-1; format: cell-based; details: for ACh-mediated calcium mobilization via TsGAR-1 (in words): Fig. 4
Excerpt: as §1, §2

[10] = biological target: T3, TsGAR-3; test: Aequorin calcium mobilization agonist assay in CHO-K1 cells expressing TsGAR-3; format: cell-based; details: for ACh-mediated calcium mobilization via TsGAR-3 (in words): Fig. 4
Excerpt: as §1, §2

[11] = system: C. elegans GAR-2; set-up: method as in Lee et al., 1999, Lee et al., 2000; details: ref Lee et al., 1999, Lee et al., 2000; cited from earlier work
[12] = agonist, co-expressed with Gα15(16)
[13] = expressed alone, without Gα15(16)
[14] = times lower sensitivity than mAChR-A

T3 sequence (E5S5F5 entry or part of it): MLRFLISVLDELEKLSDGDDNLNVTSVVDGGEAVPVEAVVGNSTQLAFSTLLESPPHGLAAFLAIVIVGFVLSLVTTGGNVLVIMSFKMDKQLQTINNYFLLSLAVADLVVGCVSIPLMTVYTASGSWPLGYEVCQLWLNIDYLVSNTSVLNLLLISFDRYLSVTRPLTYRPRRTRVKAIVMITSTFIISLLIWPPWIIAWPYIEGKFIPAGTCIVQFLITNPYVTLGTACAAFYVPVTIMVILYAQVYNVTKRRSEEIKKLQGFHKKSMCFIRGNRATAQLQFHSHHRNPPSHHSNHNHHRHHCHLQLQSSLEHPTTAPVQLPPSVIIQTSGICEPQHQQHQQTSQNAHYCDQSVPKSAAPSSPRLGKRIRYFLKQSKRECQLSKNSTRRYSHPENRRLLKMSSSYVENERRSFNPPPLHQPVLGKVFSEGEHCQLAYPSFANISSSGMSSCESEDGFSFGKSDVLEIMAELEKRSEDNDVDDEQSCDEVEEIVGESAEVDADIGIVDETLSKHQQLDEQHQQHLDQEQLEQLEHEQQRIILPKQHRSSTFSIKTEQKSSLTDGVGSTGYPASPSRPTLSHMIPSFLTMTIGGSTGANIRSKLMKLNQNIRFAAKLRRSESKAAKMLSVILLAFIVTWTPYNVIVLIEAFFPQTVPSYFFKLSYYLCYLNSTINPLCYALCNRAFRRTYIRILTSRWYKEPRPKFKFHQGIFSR
T1 sequence (E5SAZ1 entry or part of it): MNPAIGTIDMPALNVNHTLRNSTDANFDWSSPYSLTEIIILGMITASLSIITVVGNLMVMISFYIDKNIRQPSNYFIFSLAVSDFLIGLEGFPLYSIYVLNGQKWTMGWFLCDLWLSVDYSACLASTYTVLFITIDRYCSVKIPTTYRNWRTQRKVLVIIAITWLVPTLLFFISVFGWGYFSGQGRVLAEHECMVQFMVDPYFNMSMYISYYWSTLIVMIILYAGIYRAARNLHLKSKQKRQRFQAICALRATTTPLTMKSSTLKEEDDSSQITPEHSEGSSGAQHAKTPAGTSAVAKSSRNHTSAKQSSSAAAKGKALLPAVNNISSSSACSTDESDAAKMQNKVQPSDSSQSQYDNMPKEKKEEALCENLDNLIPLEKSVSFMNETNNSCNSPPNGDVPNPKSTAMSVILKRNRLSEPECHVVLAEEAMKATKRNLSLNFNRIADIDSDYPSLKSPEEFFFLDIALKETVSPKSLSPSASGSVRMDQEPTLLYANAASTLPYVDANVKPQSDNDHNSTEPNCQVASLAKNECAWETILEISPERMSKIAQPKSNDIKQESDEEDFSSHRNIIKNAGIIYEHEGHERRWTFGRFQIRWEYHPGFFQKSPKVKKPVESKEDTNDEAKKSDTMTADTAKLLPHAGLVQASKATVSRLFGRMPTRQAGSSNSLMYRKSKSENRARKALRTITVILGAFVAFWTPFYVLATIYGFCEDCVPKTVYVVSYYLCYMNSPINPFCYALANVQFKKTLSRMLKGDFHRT
T2 sequence (A0A0V1C1R2 entry or part of it): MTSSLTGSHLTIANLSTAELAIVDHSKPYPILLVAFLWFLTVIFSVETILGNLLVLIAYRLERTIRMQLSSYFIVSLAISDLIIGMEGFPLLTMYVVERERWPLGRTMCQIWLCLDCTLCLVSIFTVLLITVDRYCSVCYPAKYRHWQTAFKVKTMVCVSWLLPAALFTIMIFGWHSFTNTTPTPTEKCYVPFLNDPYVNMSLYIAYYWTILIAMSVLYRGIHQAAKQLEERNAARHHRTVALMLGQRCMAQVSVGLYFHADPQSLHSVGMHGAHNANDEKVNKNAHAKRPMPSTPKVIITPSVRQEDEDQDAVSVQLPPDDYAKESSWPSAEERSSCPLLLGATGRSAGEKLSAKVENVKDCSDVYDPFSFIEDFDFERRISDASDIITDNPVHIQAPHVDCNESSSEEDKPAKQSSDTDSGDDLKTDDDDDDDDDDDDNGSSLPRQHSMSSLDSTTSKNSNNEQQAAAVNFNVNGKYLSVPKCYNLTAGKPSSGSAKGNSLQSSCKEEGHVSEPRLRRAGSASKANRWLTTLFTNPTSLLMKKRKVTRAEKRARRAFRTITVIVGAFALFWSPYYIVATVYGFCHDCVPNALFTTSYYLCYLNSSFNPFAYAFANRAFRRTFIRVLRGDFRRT

SMILES | antagonist effect on TsGAR-2 (in words) [1] | antagonist effect on TsGAR-1 (in words) [2] | IC50 [6] [µM] | nH (Hill coefficient), antagonist, TsGAR-3 [6] | antagonist effect on TsGAR-3 (in words) [6] | agonist activity on TsGAR-2 (in words) ([8]; co-expressed with Gα15(16)) | EC50 [9] [nM] | nH (Hill coefficient), agonist, TsGAR-1 [9, 12] | agonist activity on TsGAR-1 (in words) ([9]; co-expressed with Gα15(16)) | EC50 [10] [µM] | nH (Hill coefficient), agonist, TsGAR-3 ([10]; without Gα15(16)) | agonist activity on TsGAR-3 (in words) ([10]; without Gα15(16)) | nH (Hill coefficient), agonist, TsGAR-2 [8, 12] | EC50 [8] [nM] | further results
CN1[C@@H]2CC[C@H]1C[C@@H](OC(=O)C(CO)c1ccccc1)C2 (stereo partly drawn) [Atropine, atropine] | not effective in blocking | not effective in blocking; also recorded: totally ineffective | 0.222 ± 0.0427 | −0.8748 | effectively inhibited |  |  |  |  |  |  |  |  |  | antagonist effect on A. suum GAR-1 (in words) [3]: effective in inhibiting; also recorded: effectively blocked; antagonist effect on C. elegans GAR-1 (in words) [4]: effective in inhibiting; also recorded: effectively blocked; antagonist effect on T. castaneum mAChR-B (in words) [5]: remained unaffected; antagonist effect on D. melanogaster mAChR-B (in words) [7]: remained unaffected
COC(=O)C1=CCCN(C)C1 [Arecoline, arecoline hydrobromide] |  |  |  |  |  | did not detect any arecoline-triggered activation | 4630 ± 841 | 1.054 | partial agonist | 0.457 ± 0.156 | 1.199 | partial agonist |  |  | agonist activity on A. suum GAR-1 (in words) [3]: effectively activate
CC(=O)OCC[N+](C)(C)C [Acetylcholine, acetylcholine chloride] |  |  |  |  |  | potent activator |  | 0.8621 | potent activator | 0.4 ± 0.0731 | 0.7319 | potent activator | 0.5883 |  | EC50 ([8]; agonist, CHO cells, co-expressed with Gα15(16), SE of three biological replications, read-out: EC50 ± SE (nM), TsGAR-2): 14.7 ± 10.8 nM; ACh-mediated calcium mobilization via TsGAR-2 (in words) ([8]; co-expressed with Gα15(16)): dose-dependent activity; ACh-mediated calcium mobilization via TsGAR-2 (in words) [8, 13]: effective responses; EC50 ([9]; agonist, CHO cells, co-expressed with Gα15(16), SE of three biological replications, read-out: EC50 ± SE (nM), TsGAR-1): 194 ± 18.1 nM; ACh-mediated calcium mobilization via TsGAR-1 (in words) ([9]; co-expressed with Gα15(16)): dose-dependent activity; ACh-mediated calcium mobilization via TsGAR-1 (in words) [9, 13]: effective responses; ACh-mediated calcium mobilization via TsGAR-3 (in words) ([10]; co-expressed with Gα15(16)): dose-dependent activity; ACh-mediated calcium mobilization via TsGAR-3 (in words) [10, 13]: effective responses
CC(C[N+](C)(C)C)OC(N)=O (stereo not drawn) [Bethanechol, bethanechol chloride] |  |  |  |  |  | low potency | > 10000 | 0.9289 | low potency | > 10 | 1.390 | low potency | 0.8738 | > 10000 | agonist activity on A. suum GAR-1 (in words) [3]: agonistic effect was shown
C[N+](C)(C)CCOC(N)=O [Carbachol, carbamoylcholine chloride] |  |  |  |  |  |  | 2050 ± 235 | 0.8693 |  | 1.93 ± 0.256 | 0.9117 |  | 0.9531 | 2670 ± 508 | 
CN1[C@@H]2C[C@@H](OC(=O)[C@H](CO)c3ccccc3)C[C@H]1[C@@H]1O[C@@H]12 [Scopolamine, (−)-scopolamine hydrobromide trihydrate] | not effective in blocking | not effective in blocking | 0.0273 ± 0.0063 | −1.151 | effectively inhibited |  |  |  |  |  |  |  |  |  | antagonist effect on T. castaneum mAChR-B (in words) [5]: remained unaffected; antagonist effect on D. melanogaster mAChR-B (in words) [7]: remained unaffected
C[C@@H]1O[C@H](C[N+](C)(C)C)C[C@H]1O [Muscarine, (+)-muscarine chloride] |  |  |  |  |  | low affinity |  |  | no | 2.5 ± 0.96 | 0.7106 | potent agonist | 0.8666 | > 10000 | sensitivity of T. castaneum mAChR-B relative to mAChR-A [5, 14]: ~100 times; sensitivity of D. melanogaster mAChR-B relative to mAChR-A [7, 14]: about 1000 times
CCCOC(C(=O)OC1CCN(C)CC1)(c1ccccc1)c1ccccc1 [Propiverine, propiverine hydrochloride] | partially blocked | partially blocked | > 10 | −0.6649 | partially blocked |  |  |  |  |  |  |  |  |  | IC50 ([1]; antagonist vs 10 μM ACh, read-out: IC50 ± SE (nM), TsGAR-2): > 10000 nM; nH (Hill coefficient), antagonist, TsGAR-2 ([1]; antagonist): −3.002; IC50 ([2]; antagonist vs 10 μM ACh, read-out: IC50 ± SE (nM), TsGAR-1): > 10000 nM; antagonist effect on A. suum GAR-1 (in words) [3]: largely no effect; antagonist effect on C. elegans GAR-1 (in words) [4]: largely no effect; antagonist effect on C. elegans GAR-2 (in words) [11]: largely no effect
